Assay results as given in EPA's ToxRefDB 2.

Legend:
[1] = system: dog; conditions: Subchronic oral toxicity in nonrodent, beagle, Capsule, dose end: 13 week, group: systemic
[2] = system: rat; conditions: Combined chronic toxicity/carcinogenicity, sprague dawley, Oral, Feed, dose end: 2 year, group: systemic
[3] = system: mouse; conditions: Carcinogenicity, cd1, Oral, Feed, dose end: 18 month, group: systemic
[4] = system: rat; conditions: Subchronic oral toxicity in rodents, sprague dawley, Feed, dose end: 13 week, group: systemic, systemic / in life observation / body weight / body weight gain + systemic / organ weight / kidney / relative to body weight
[5] = system: dog; conditions: Chronic toxicity, beagle, Oral, Capsule, dose end: 52 week, group: systemic
[6] = system: rabbit; conditions: Prenatal developmental toxicity study, new zealand white, Oral, Gavage/Intubation, dose end: 19 GD
[7] = system: rat; conditions: Multigenerational reproductive toxicity study, sprague dawley, Oral, Feed, dose end: 2 generation
[8] = system: rat; conditions: Subchronic oral toxicity in rodents, fischer, Feed, dose end: 90 day, group: systemic, systemic / pathology microscopic / stomach / erosion + systemic / pathology microscopic / stomach / hyperkeratosis + systemic / pathology …
[9] = system: rabbit; conditions: Prenatal developmental toxicity study, other, Oral, Gavage/Intubation, dose end: 18 GD
[10] = system: rat; conditions: Prenatal developmental toxicity study, sprague dawley, Oral, Gavage/Intubation, dose end: 15 GD
[11] = system: rat; conditions: Developmental neurotoxicity study; sprague dawley; Injection; Intraperitoneal; dose end: 112 PND; group: cannot be grouped; developmental / developmental malformation / bone / kinked + developmental / offspring survival late / [other] / [other] + reproductive / …
[12] = systemic / pathology microscopic / thymus / involution + systemic / clinical chemistry / alanine aminotransferase (alt/sgpt) / alanine …
[13] = systemic / pathology microscopic / thymus / involution + systemic / pathology microscopic / epididymis / reduced spermatogenesis + systemic…
[14] = systemic / pathology gross / liver / foci
[15] = systemic / in life observation / mortality / mortality + systemic / pathology microscopic / bone marrow / hyperplasia + systemic / pathology…
[16] = systemic / organ weight / brain / relative to body weight
[17] = systemic / pathology microscopic / liver / pigmentation + systemic / hematology / erythrocyte (rbc) count differential / erythrocyte (rbc…
[18] = systemic / pathology microscopic / liver / pigmentation + systemic / pathology microscopic / epididymis / inflammation + systemic / …
[19] = group: developmental, developmental / developmental malformation / bone / unossified + developmental / developmental malformation / brain / hydrocephalus + …
[20] = group: maternal, reproductive / reproductive performance / aborted / aborted + systemic / in life observation / body weight / body weight gain + systemic / …
[21] = group: offspring, developmental / offspring survival late / viability index / viability index + developmental / offspring survival late / lactation index / …
[22] = group: offspring, developmental / offspring survival late / viability index / viability index + systemic / in life observation / body weight / offspring (pup…
[23] = group: parental, systemic / in life observation / body weight / body weight + systemic / in life observation / body weight / body weight gain + systemic / …
[24] = group: developmental, developmental / developmental malformation / bone / branched + developmental / developmental malformation / bone / full supernumerary
[25] = group: maternal, systemic / in life observation / body weight / body weight gain + systemic / in life observation / food consumption / food consumption
[26] = group: developmental, developmental / developmental malformation / bone / [other] + developmental / developmental malformation / kidney / dilated renal pelvis + …
[27] = group: maternal, systemic / in life observation / body weight / body weight gain + systemic / in life observation / food consumption / food consumption + …

Question: How did the NEL [1, 12] turn out when `CCc1c(C(=O)[O-])c(=O)cnn1-c1ccc(Cl)cc1.[K+]` [Clofencet-potassium] was run?
Answer: 50 mg/kg/day

Question: What about the NOAEL [1, 12] of the same compound?
Answer: 50 mg/kg/day

Question: And the LEL [1, 13]?
Answer: 200 mg/kg/day

Question: What about the LOAEL [1, 13] of the same compound?
Answer: 200 mg/kg/day

Question: And the LOAEL ([2]; systemic / in life observation / clinical signs / urine, discoloration + systemic / pathology gross / lung / foci + systemic / pathology …)?
Answer: 470 mg/kg/day

Question: And the LEL [2, 14]?
Answer: 4.7 mg/kg/day

Question: And the NEL [2, 14]?
Answer: < 4.7 mg/kg/day

Question: And the NOAEL ([2]; systemic / pathology gross / liver / foci + systemic / in life observation / clinical signs / urine, discoloration + systemic / pathology …)?
Answer: 47 mg/kg/day

Question: And the LOAEL [3, 15]?
Answer: 1230 mg/kg/day

Question: What about the NOAEL [3, 15] of the same compound?
Answer: 501 mg/kg/day

Question: And the LEL [3, 16]?
Answer: 11.4 mg/kg/day

Question: What about the NEL [3, 16] of the same compound?
Answer: < 11.4 mg/kg/day

Question: What about the LEL [4] of the same compound?
Answer: 1480 mg/kg/day

Question: And the LOAEL [4]?
Answer: 1480 mg/kg/day

Question: And the NEL [4]?
Answer: 373 mg/kg/day

Question: What about the NOAEL [4] of the same compound?
Answer: 373 mg/kg/day

Question: What about the NEL [5, 17] of the same compound?
Answer: 5 mg/kg/day

Question: What about the NOAEL [5, 17] of the same compound?
Answer: 5 mg/kg/day

Question: And the LEL [5, 18]?
Answer: 30 mg/kg/day

Question: And the LOAEL [5, 18]?
Answer: 30 mg/kg/day

Question: What about the LEL [6, 19] of the same compound?
Answer: 500 mg/kg/day

Question: What about the LOAEL [6, 19] of the same compound?
Answer: 500 mg/kg/day

Question: What about the NEL [6, 19] of the same compound?
Answer: 150 mg/kg/day

Question: What about the NOAEL [6, 19] of the same compound?
Answer: 150 mg/kg/day

Question: What about the LEL [6, 20] of the same compound?
Answer: 500 mg/kg/day

Question: And the LOAEL [6, 20]?
Answer: 500 mg/kg/day

Question: And the NEL [6, 20]?
Answer: 150 mg/kg/day

Question: And the NOAEL [6, 20]?
Answer: 150 mg/kg/day

Question: What about the LEL [7, 21] of the same compound?
Answer: 393 mg/kg/day

Question: And the LOAEL [7, 21]?
Answer: 393 mg/kg/day

Question: What about the NEL [7, 22] of the same compound?
Answer: 38 mg/kg/day

Question: What about the NOAEL [7, 22] of the same compound?
Answer: 38 mg/kg/day

Question: And the LEL [7, 23]?
Answer: 1600 mg/kg/day

Question: What about the LOAEL [7, 23] of the same compound?
Answer: 1600 mg/kg/day

Question: And the NEL [7, 23]?
Answer: 393 mg/kg/day

Question: What about the NOAEL [7, 23] of the same compound?
Answer: 393 mg/kg/day

Question: Which results are given for `CC(C)C1CCC(Cc2ccc(Cl)cc2)C1(O)Cn1cncn1` (stereo not given) [Ipconazole]?
Answer: LEL [8]: 29.9 mg/kg/day; LOAEL [8]: 29.9 mg/kg/day; NEL [8]: 7.22 mg/kg/day; NOAEL [8]: 7.22 mg/kg/day; LEL [9, 24]: 50 mg/kg/day; LOAEL [9, 24]: 50 mg/kg/day; NEL [9, 24]: 10 mg/kg/day; NOAEL [9, 24]: 10 mg/kg/day; LEL [9, 25]: 50 mg/kg/day; LOAEL [9, 25]: 50 mg/kg/day; NEL [9, 25]: 10 mg/kg/day; NOAEL [9, 25]: 10 mg/kg/day; LEL [10, 26]: 30 mg/kg/day; LOAEL [10, 26]: 30 mg/kg/day; NEL [10, 26]: 10 mg/kg/day; NOAEL [10, 26]: 10 mg/kg/day; LOAEL [10, 25]: 30 mg/kg/day; LEL [10, 27]: 30 mg/kg/day; NEL [10, 27]: 10 mg/kg/day; NOAEL [10, 27]: 10 mg/kg/day

Question: With `O=c1[nH]c(=O)n([C@H]2C[C@H](O)[C@@H](CO)O2)cc1Br` [5-Bromo-2'-deoxyuridine] as the compound, how does the LEL [11] read?
Answer: 50 mg/kg/day

Question: And the LOAEL [11]?
Answer: > 100 mg/kg/day

Question: And the NEL [11]?
Answer: < 50 mg/kg/day

Question: What about the NOAEL [11] of the same compound?
Answer: ≥ 100 mg/kg/day
